Data published in PubChem BioAssay AID504438 (Sanford-Burnham Center for Chemical Genomics, 2011).
The source made the active and inactive calls.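 How the source made its calls: active means IC50 below 20 µM in the dose response test; inactive means the rest.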

target: Type-1 angiotensin II receptor (Homo sapiens) (UniProt P30556); assay: AT1 receptor antagonist selectivity testing, SAR follow-up, selectivity assay for APJ receptor antagonist project, cell-based, CHO-K1 AGTR1, beta-arrestin, luminescence, set 4 (AID 504438); details: CHO-K1 AGTR1 beta-arrestin complementation
Sequence (P30556 whole entry, looked up): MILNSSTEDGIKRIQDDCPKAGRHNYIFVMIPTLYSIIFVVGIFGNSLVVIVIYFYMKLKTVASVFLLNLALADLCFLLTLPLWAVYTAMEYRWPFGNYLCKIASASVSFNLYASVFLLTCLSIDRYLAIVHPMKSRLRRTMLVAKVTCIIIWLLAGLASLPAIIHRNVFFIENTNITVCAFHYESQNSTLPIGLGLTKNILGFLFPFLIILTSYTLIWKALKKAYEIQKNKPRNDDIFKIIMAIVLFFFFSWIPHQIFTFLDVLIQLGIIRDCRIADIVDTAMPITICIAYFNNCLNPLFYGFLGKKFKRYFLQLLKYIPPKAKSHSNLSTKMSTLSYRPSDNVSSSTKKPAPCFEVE

Row | SMILES | IC50
1 | O=C(Oc1coc(CN2CCOCC2)cc1=O)c1ccccc1 | > 79 µM (inactive)
2 | Cc1cc(C)nc(SCc2cc(=O)c(OC(=O)c3ccc(-c4nccs4)cc3)co2)n1 | > 79 µM (inactive)
3 | O=C(Oc1coc(CN2CCOCC2)cc1=O)c1ccc([N+](=O)[O-])cc1 | > 79 µM (inactive)
4 | Cc1ccnc(SCc2cc(=O)c(NC(=O)c3ccc([N+](=O)[O-])cc3)co2)n1 | > 79 µM (inactive)

Next, values leading:

Row | IC50 | SMILES
5 | > 79 µM (inactive) | Cc1ccc(SCc2cc(=O)c(OC(=O)c3ccc(Cl)c([N+](=O)[O-])c3)co2)cc1
6 | > 79 µM (inactive) | O=C(Oc1coc(CSc2ccc(Cl)cc2)cc1=O)c1ccc(Cl)c([N+](=O)[O-])c1
7 | > 79 µM (inactive) | O=C(Oc1coc(CSc2ccc(OC(F)(F)F)cc2)cc1=O)c1ccc(Cl)c([N+](=O)[O-])c1
8 | > 79 µM (inactive) | COc1ccc(SCc2cc(=O)c(OC(=O)c3ccc(Cl)c([N+](=O)[O-])c3)co2)cc1
